Test results from patent publication US20110306621A1, “ACYLGUANIDINE DERIVATIVES” (priority 2009, published 2011).
pKi: −log10 of the molar value.

The molecules below were run against T1, human 5-HT5A receptor (Homo sapiens, UniProt P47898) (assay: Test on a human 5-HT5A receptor binding inhibition ([3H]5-CT)). Conditions: membrane from HEK293 cells for forced expression of human 5-HT5A receptor; Ki calculated from IC50 and Kd of [3H]5-CT (4.95 nM).
T1 construct: expressed in transfected cells; membranes used
T1 sequence (P47898 whole entry): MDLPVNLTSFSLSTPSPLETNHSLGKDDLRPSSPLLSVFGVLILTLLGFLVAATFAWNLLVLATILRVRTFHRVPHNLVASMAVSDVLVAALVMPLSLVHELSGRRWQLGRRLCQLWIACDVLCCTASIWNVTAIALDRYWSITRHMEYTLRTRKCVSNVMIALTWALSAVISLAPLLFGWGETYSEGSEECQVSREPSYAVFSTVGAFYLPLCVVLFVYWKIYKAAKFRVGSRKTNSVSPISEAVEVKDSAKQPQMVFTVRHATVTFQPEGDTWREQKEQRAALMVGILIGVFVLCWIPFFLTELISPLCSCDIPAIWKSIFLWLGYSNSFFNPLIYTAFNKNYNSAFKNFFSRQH
Protocol: The ORF (open reading frame; protein coding region) of a human 5-HT5A receptor (Genbank AF498985) was cloned from a human hippocampus cDNA library, and then inserted into a pCR2.1 vector (Invitrogen), and Escherichia coli containing the plasmid was cultured in a large amount. Next, the full-length cDNA sequence of the human 5-HT5A receptor was analyzed, and recombined into a pcDNA3.1 vector (Invitrogen) as an expression vector and cultured in a large amount. HEK293 established cells (ATCC) derived from the human fetal kidney were seeded, the expression plasmid (1 μg) obtained above were added thereto with LIPOFECTAMINE 2000 (Invitrogen; 2 μl), the gene was transfected into HEK293 cells, and the expression cells were screened with a drug-resistant marker, Geneticin (G418 sulfate 500 μg/ml; Kanto Chemical Co., Inc.). Thus prepared recombinant cells which expressed the gene were cultured in a medium containing D-MEM (Dulbecco's modified eagle medium, Sigma), 10% FCS (Fetal calf serum: fetal bovine serum), 1% Pc./Sm (Penicillin/Streptomycin, Invitrogen), and 500 μg/ml G418 for 3 days. These experimental operations followed a manual for gene operation experiment and an instruction appended in a reagent, and the like, such as a known method (Sambrook, J. et al, Molecular Cloning-A Laboratory Manual”, Cold Spring Harabor laboratory, NY, 1989).
HEK293 cells for forced expressions of a human 5-HT5A receptor were cultured in a F500 plate, and scraped with a scraper. After centrifugation, the precipitate was collected, and an incubation buffer (50 mM Tris (HCl) (pH 7.4), 10 mM MgSO4, and 0.5 mM EDTA (ethylenediamine tetraacetic acid)) was added thereto. After homogenization, it was further centrifuged, and the incubation buffer was added to the precipitate, followed by thoroughly suspending. The operation was repeated, and protein concentration was measured, thereby completing preparation of the membrane.
A solution of the compound to be tested and 100 μM 5-CT (5-carboxamidetriptamine) in DMSO was added to a 96-well plate at 2 μl/well, suspended in an incubation buffer, and a membrane from HEK293 cells for forced expressions of a human 5-HT5A receptor prepared at 200 μg/ml was added at 100 μl/well. After incubation at room temperature for 15 minutes, a [^3H]5-CT solution (2 nM [^3H]5-CT, incubation buffer) was added thereto at 100 μl/well.
Separately, 100 μl of the solution was distributed into a liquid scintillation vial, and 2 ml of Aquasol II (registered trademark) was added thereto, followed by stirring. Then, radioactivity was measured by a liquid scintillation counter. It was incubated at 37° C. for 60 minutes. The reaction mixture was sucked into 96-well GF/C filter plate that had been pre-treated with 0.2% polyethyleneimine, and washed six times with an ice-cooled, 50 mM Tris (pH 7.5) buffer. The GF/C filter plate was dried.
Microscint TMPS (registered trademark) was added thereto at 40 μl/well. Radioactivity remaining on the GF/C filter plate was measured by a top counter.
The [^3H]5-CT binding inhibiting activity by the compound to be tested in each experiment was determined as an IC50 value with a radioactivity upon addition of DMSO alone being 0% inhibition, and a radioactivity upon addition of 1 μM 5-CT being 100% inhibition. Separately, Ki values were calculated from the Kd value of the [^3H]5-CT determined from Scatchard analysis, by the following equation.
Ki=IC50 (1+Concentraion of ligand added/Kd (4.95 nM))
Work on `COc1nc(C)ccc1-c1c(Cl)ccc2ccc(C(=O)N=C(N)N)cc12` [Example 174] yielded a pKi of 8.52 to 9.52. `COc1cc(F)cc(F)c1-c1cccc2ccc(C(=O)N=C(N)N)cc12` [Example 42] gave a pKi of 8.52 to 9.52. `NC(N)=NC(=O)c1ccc2cccc(-c3cccc(Cl)c3F)c2c1` [Example 69] was tested, and the pKi was 8.52 to 9.52. Molecule `COc1cc(-c2cccc3ccc(C(=O)N=C(N)N)cc23)c(Cl)cn1` [Example 63] has a pKi of 7.52 to 8.52. `NC(N)=NC(=O)c1ccc2cccc(-c3c(F)cncc3F)c2c1` [Example 31] gave a pKi of 8.52 to 9.52. `COc1cccc(F)c1-c1cccc2ccc(C(=O)N=C(N)N)cc12` [Example 18] gave a pKi of 8.52 to 9.52. Work on `COc1cccc(-c2cccc3ccc(C(=O)N=C(N)N)cc23)c1F` [Example 40] yielded a pKi of 7.52 to 8.52. With `COc1ccc(-c2cccc3ccc(C(=O)N=C(N)N)cc23)c(F)c1` [Example 82] the pKi was 8.52 to 9.52. Work on `NC(N)=NC(=O)c1ccc2cccc(-c3cccc4c3OCC4)c2c1` [Example 95] yielded a pKi of 8.52 to 9.52. Work on `COc1ccc(-c2cccc3ccc(C(=O)N=C(N)N)cc23)c(C#N)c1` [Example 72] yielded a pKi of 7.52 to 8.52. For `N#Cc1ccc(F)c(-c2cccc3ccc(C(=O)N=C(N)N)cc23)c1` [Example 81], the pKi was 8.52 to 9.52. In the case of `Cc1c(-c2cccc3ccc(C(=O)N=C(N)N)cc23)ncnc1C1CC1` [Example 193], the pKi was 6.52 to 7.52. In the case of `N#Cc1ccc(-c2c(F)ccc3ccc(C(=O)N=C(N)N)cc23)cc1` [Example 9], the pKi was 8.52 to 9.52. Work on `N#Cc1ccc(-c2cccc3ccc(C(=O)N=C(N)N)cc23)nc1` [Example 184] yielded a pKi of 7.52 to 8.52. In the case of `N#Cc1ccc(-c2cccc3ccc(C(=O)N=C(N)N)cc23)c(O)c1` [Example 132], the pKi was 8.52 to 9.52. `NC(N)=NC(=O)c1ccc2cccc(-c3cc(Cl)ccc3Cl)c2c1` [Example 76] was tested, and the pKi was 8.52 to 9.52. For `Cc1cc(Cl)cnc1-c1cccc2ccc(C(=O)N=C(N)N)cc12` [Example 152], the pKi was 7.52 to 8.52. Molecule `Cc1ccc2ccc(C(=O)N=C(N)N)cc2c1-c1ccc(C#N)cc1` [Example 10] has a pKi of 8.52 to 9.52. With `Cc1nc(-c2cccc3ccc(C(=O)N=C(N)N)cc23)ccc1F` [Example 158] the pKi was 6.52 to 7.52. For `N#Cc1c(Cl)cccc1-c1cccc2ccc(C(=O)N=C(N)N)cc12` [Example 85], the pKi was 8.52 to 9.52. Molecule `NC(N)=NC(=O)c1ccc2cccc(-c3ncc(C4CC4)cc3Cl)c2c1` [Example 192] has a pKi of 7.52 to 8.52. With `COc1ccc(F)cc1-c1cccc2ccc(C(=O)N=C(N)N)cc12` [Example 34] the pKi was 7.52 to 8.52. `COc1ccc(C#N)cc1-c1cccc2ccc(C(=O)N=C(N)N)cc12` [Example 15] gave a pKi of 7.52 to 8.52. `NC(N)=NC(=O)c1ccc2ccc(Cl)c(-c3ccccc3F)c2c1` [Example 110] showed a pKi of 8.52 to 9.52. Work on `NC(N)=NC(=O)c1ccc2cccc(-c3ccc(Cl)cc3Cl)c2c1` [Example 61] yielded a pKi of 8.52 to 9.52. Work on `NC(N)=NC(=O)c1ccc2cccc(-c3cc(Cl)ncc3Cl)c2c1` [Example 38] yielded a pKi of 7.52 to 8.52. For `N#Cc1ccccc1-c1cccc2ccc(C(=O)N=C(N)N)cc12` [Example 20], the pKi was 7.52 to 8.52. `NC(N)=NC(=O)c1ccc2cccc(C3=CCOCC3)c2c1` [Example 22] showed a pKi of 7.52 to 8.52. `NC(N)=NC(=O)c1ccc2cccc(-c3cc(F)c(F)cc3F)c2c1` [Example 96] showed a pKi of 8.52 to 9.52. `NC(N)=NC(=O)c1ccc2cccc(-c3ccnc(C4CC4)c3C3CC3)c2c1` [Example 202] gave a pKi of 7.52 to 8.52. `COc1c(F)cc(F)c(-c2cccc3ccc(C(=O)N=C(N)N)cc23)c1F` [Example 127] was tested, and the pKi was 7.52 to 8.52. For `Cn1nccc1-c1cccc2ccc(C(=O)N=C(N)N)cc12` [Example 79], the pKi was 7.52 to 8.52. `Cc1nc(C)c(-c2cccc3ccc(C(=O)N=C(N)N)cc23)s1` [Example 17] gave a pKi of 7.52 to 8.52. `COc1ccc(-c2cccc3ccc(C(=O)N=C(N)N)cc23)cn1` [Example 97] showed a pKi of 7.52 to 8.52. In the case of `NC(N)=NC(=O)c1ccc2cccc(-c3cc(Cl)ccc3F)c2c1` [Example 70], the pKi was 8.52 to 9.52. Work on `N#Cc1c(F)cccc1-c1cccc2ccc(C(=O)N=C(N)N)cc12` [Example 29] yielded a pKi of 7.52 to 8.52. With `NC(N)=NC(=O)c1ccc2cccc(-c3cccs3)c2c1` [Example 46] the pKi was 8.52 to 9.52. `NC(N)=NC(=O)c1ccc2cccc(-c3ccccn3)c2c1` [Example 201] gave a pKi of 7.52 to 8.52. Work on `Cc1ccc2ccc(C(=O)N=C(N)N)cc2c1-c1ccc(F)cc1` [Example 11] yielded a pKi of 8.52 to 9.52. In the case of `NC(N)=NC(=O)c1ccc2cccc(-c3cncc(Cl)c3)c2c1` [Example 74], the pKi was 7.52 to 8.52. `NC(N)=NC(=O)c1ccc2cccc(-c3c(F)ccc(O)c3Cl)c2c1` [Example 119] gave a pKi of 8.52 to 9.52. `NC(N)=NC(=O)c1ccc2cccc(-c3ncc(Cl)cc3F)c2c1` [Example 180] showed a pKi of 7.52 to 8.52. Molecule `COc1ncccc1-c1cccc2ccc(C(=O)N=C(N)N)cc12` [Example 8] has a pKi of 7.52 to 8.52. Molecule `NC(N)=NC(=O)c1ccc2cccc(-c3ccnc(Cl)c3)c2c1` [Example 53] has a pKi of 7.52 to 8.52. `NC(N)=NC(=O)c1ccc2cccc(-c3cccc(O)c3F)c2c1` [Example 106] was tested, and the pKi was 8.52 to 9.52. `NC(N)=NC(=O)c1ccc2cccc(-c3ncc(C(F)(F)F)cc3Cl)c2c1` [Example 194] gave a pKi of 7.52 to 8.52. Molecule `COc1cc(C#N)ccc1-c1c(Cl)ccc2ccc(C(=O)N=C(N)N)cc12` [Example 145] has a pKi of 8.52 to 9.52. For `NC(N)=NC(=O)c1ccc2cccc(-c3cccc(F)c3F)c2c1` [Example 71], the pKi was 8.52 to 9.52. `NC(N)=NC(=O)c1ccc2cccc(-c3cc(Cl)c(F)cc3F)c2c1` [Example 139] was tested, and the pKi was 8.52 to 9.52. `NC(N)=NC(=O)c1ccc2cccc(-c3ncc(Cl)cc3Cl)c2c1` [Example 151] showed a pKi of 8.52 to 9.52. In the case of `NC(N)=NC(=O)c1ccc2cccc(-c3c(Cl)cccc3Cl)c2c1` [Example 58], the pKi was 8.52 to 9.52. In the case of `NC(N)=NC(=O)c1ccc2cccc(-c3ccccc3C3CC3)c2c1` [Example 138], the pKi was 8.52 to 9.52. `Cc1ccc2ccc(C(=O)N=C(N)N)cc2c1-c1ccncc1F` [Example 114] gave a pKi of 8.52 to 9.52. Molecule `NC(N)=NC(=O)c1ccc2cccc(-c3c(F)cccc3OC(F)F)c2c1` [Example 107] has a pKi of 8.52 to 9.52. For `COc1cccc(-c2cccc3ccc(C(=O)N=C(N)N)cc23)c1C#N` [Example 99], the pKi was 7.52 to 8.52. For `NC(N)=NC(=O)c1ccc2cccc(-c3c(F)ccc(F)c3O)c2c1` [Example 177], the pKi was 8.52 to 9.52. `NC(N)=NC(=O)c1ccc2cccc(-c3ncccc3Cl)c2c1` [Example 108] was tested, and the pKi was 7.52 to 8.52. For `NC(N)=NC(=O)c1ccc2cccc(-c3cncc4ccccc34)c2c1` [Example 130], the pKi was 7.52 to 8.52. Molecule `NC(N)=NC(=O)c1ccc2cccc(-c3ccc(F)cc3OC(F)F)c2c1` [Example 94] has a pKi of 7.52 to 8.52. `Cc1ccc2ccc(C(=O)N=C(N)N)cc2c1-c1ccccc1O` [Example 162] showed a pKi of 7.52 to 8.52. For `NC(N)=NC(=O)c1ccc2cccc(-c3ccncc3)c2c1` [Example 133], the pKi was 7.52 to 8.52. Molecule `Cc1cnc(-c2cccc3ccc(C(=O)N=C(N)N)cc23)c(Cl)c1` [Example 200] has a pKi of 7.52 to 8.52. With `NC(N)=NC(=O)c1ccc2cccc(-c3ccc(Cl)cc3O)c2c1` [Example 150] the pKi was 8.52 to 9.52. Work on `NC(N)=NC(=O)c1ccc2cccc(-c3c(F)cc(F)cc3Cl)c2c1` [Example 140] yielded a pKi of 8.52 to 9.52. For `COc1cncc(-c2cccc3ccc(C(=O)N=C(N)N)cc23)c1` [Example 111], the pKi was 6.52 to 7.52. `NC(N)=NC(=O)c1ccc2cccc(-c3c(O)cccc3Cl)c2c1` [Example 116] gave a pKi of 8.52 to 9.52. `N#Cc1cc(Cl)ccc1-c1cccc2ccc(C(=O)N=C(N)N)cc12` [Example 33] gave a pKi of 7.52 to 8.52. For `NC(N)=NC(=O)c1ccc2cccc(-c3cc(C4CC4)ncc3Cl)c2c1` [Example 185], the pKi was 8.52 to 9.52. With `NC(N)=NC(=O)c1ccc2cccc(-c3cccc4c3OC(F)(F)O4)c2c1` [Example 115] the pKi was 7.52 to 8.52. `COc1ccc(-c2c(C)ccc3ccc(C(=O)N=C(N)N)cc23)cc1` [Example 12] showed a pKi of 8.52 to 9.52. For `Cc1cc(-c2cccc3ccc(C(=O)N=C(N)N)cc23)cc(C)n1` [Example 166], the pKi was 7.52 to 8.52. Work on `Cc1ccncc1-c1cccc2ccc(C(=O)N=C(N)N)cc12` [Example 100] yielded a pKi of 7.52 to 8.52.
